Inhibition and IC50 data for 52 compounds are collected here from PubChem BioAssay AID850 (SRMLSC, 2007).

Test [1] in a line: concentration-response yeast growth inhibition under permissive conditions, counter-assay for yeast lifespan-shortening chemical project (AID 850).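 Note: growth read as optical density after one day of incubation.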 Particulars: Saccharomyces cerevisiae growth inhibition, permissive control, measured here: maximum growth inhibition, stronger effect = higher value.
Test [2] concerns Saccharomyces cerevisiae growth inhibition, permissive control. Described as above.

The structures appear in SMILES notation. The source made the active and inactive calls. The rule behind the calls is not given here.

Turning to `Cc1cccc(C(=O)NC(=S)NNC(=O)c2cccs2)c1`, the inhibition in test [1] (at 50 µM) was determined as 76%. Further, the IC50 in test [2] was 19.9 µM.
Take `Cn1c(SCC(=O)N/N=C/c2ccc([N+](=O)[O-])s2)nnc1-c1ccc(Cl)cc1`: the inhibition in test [1] (at 50 µM) turned out to be 99.2%. Further, in test [2], the IC50 was 29.7 µM.
As for `O=C(O)Cc1ccc2sc(-c3ccccc3)nc2c1`, the inhibition in test [1] (at 50 µM) stood at 26.9%. In addition, the IC50 in test [2] is > 100 µM (inactive).
With `CC1=C(C)CC2C(=O)N(c3cccc4ccccc34)C(=O)C2C1` (centres undefined), in test [1] (at 50 µM), the inhibition is 8.57%. Moreover, the IC50 in test [2] was > 100 µM (inactive).
In the case of `CCc1cccc(CC)c1NC(=S)NCc1ccc2[nH]c(C)cc2c1`, the inhibition in test [1] (at 50 µM) is 13.8%. Moreover, the IC50 in test [2] is > 100 µM (inactive).
`Cc1ccc(O)c(-c2cc(-c3ccccc3C)[nH]n2)c1`: the inhibition in test [1] (at 50 µM) was 56.5%. Also, the IC50 in test [2] was 44.7 µM.
On to `Cc1ccccc1C(=O)O/N=C/c1c(N2CCOCC2)n(C)c2ccccc12`, for which the inhibition in test [1] (at 50 µM) came to 57.1%. The IC50 in test [2] was 50.7 µM.
Regarding `OC(CNCCC1C=Nc2ccccc21)Cn1c2ccc(Cl)cc2c2cc(Cl)ccc21` (centres undefined), the inhibition in test [1] (at 50 µM) was determined as 100%. In test [2], the half-maximal inhibitory concentration (IC50) was 18.4 µM.
For the compound `COc1ccccc1-c1nnc(NC(=O)C(C)SC2=NCCS2)s1` (centres undefined), the inhibition in test [1] (at 12.5 µM) came to 16.8%. Besides, the IC50 in test [2] is > 100 µM (inactive).
Regarding `O=C(O)c1ccc(SCc2cnc(Cl)s2)cc1`, the inhibition in test [1] (at 50 µM) came out at 99.2%. For the same compound, the IC50 in test [2] was 4.91 µM.
As for `O=C(/C(=N/N=C/c1ccc(O)c(O)c1O)c1ccccc1)c1ccccc1`, in test [1] (at 0.781 µM), the inhibition came to 5.74%. In test [2], the IC50 was > 100 µM (inactive).
As to `Cc1cc(N2CCN(c3cccc(C)c3C)CC2)nc(-c2ccccc2)n1`, the inhibition in test [1] (at 50 µM) was 93%. The IC50 in test [2] is 37.3 µM.
Consider `CC1(C)CC(=NOC(=O)c2ccccc2)CC(C)(C)N1O`, for which the inhibition in test [1] (at 50 µM) is 98.6%. The IC50 in test [2] was 14 µM.
With `CCOC(=O)c1cc([N+](=O)[O-])c([N+](=O)[O-])cc1NC(C)=O`, the inhibition in test [1] (at 12.5 µM) came to 99.6%. For the same compound, the IC50 in test [2] was < 0.098 µM.
On to `O=C1OCC(CO)(CO)N=C1NNc1ccc(Cl)c(Cl)c1`, for which the inhibition in test [1] (at 50 µM) was determined as 98.6%. Also, the IC50 in test [2] is 1.6 µM.
With `COc1ccc(C(=O)/C=C/Nc2ccc(C)cn2)cc1OC`, the inhibition in test [1] (at 1.563 µM) turned out to be 14.8%. The IC50 in test [2] is > 100 µM (inactive).
For the compound `Oc1c(Cl)cc(Cl)c2c1NCCC2`, the inhibition in test [1] (at 50 µM) came to 99.8%. Moreover, the IC50 in test [2] was 15.9 µM.
As for `CC1Cc2ccccc2N1C(=O)CSC1=NCCS1` (centres undefined), the inhibition in test [1] (at 0.781 µM) was determined as 16.7%. Further, the IC50 in test [2] was > 100 µM (inactive).
Turning to `O=C1c2cccc3cccc(c23)C(=O)N1c1cccnc1`, the inhibition in test [1] (at 50 µM) worked out at 27.9%. Also, the IC50 in test [2] is > 100 µM (inactive).
For `Cc1ccccc1N=Cc1cccc(O)c1O`, the inhibition in test [1] (at 50 µM) was found to be 99.2%. In test [2], the IC50 is 7.59 µM.
For the compound `Cc1ccc(C)c(-n2nnnc2SCC(=O)Nc2cccc(-c3nnc4n3CCCCC4)c2)c1`, in test [1] (at 50 µM), the inhibition was 17.5%. The IC50 in test [2] is > 100 µM (inactive).
`O=c1oc2ccccc2c(O)c1/C=C1\C=Nc2ccccc21`: in test [1] (at 50 µM), the inhibition was found to be 93.2%. For the same compound, the IC50 in test [2] is 5.05 µM.
For `Cc1ccc(C(=O)CSC2=NC(N)=C(C#N)C3(CCCCC3)C2C(N)=O)cc1` (centres undefined), in test [1] (at 1.563 µM), the inhibition was 18.2%. Moreover, the IC50 in test [2] is > 100 µM (inactive).
Take `OC(CNCC1CCCO1)Cn1c2ccc(Br)cc2c2cc(Br)ccc21` (centres undefined): the inhibition in test [1] (at 50 µM) came out at 98.8%. Moreover, the IC50 in test [2] was 41 µM.
On the same counts, the results for `Cc1cccc(NC(=O)CC2SC(=O)N(c3ccccc3)C2=O)c1` (centres undefined) are -6.43% and > 100 µM (inactive).
In the same order, the values of `COC1=C(N)C(=O)c2nc(-c3nc(C(=O)O)c(C)c(-c4ccc(OC)c(OC)c4O)c3N)ccc2C1=O` are 98.7% and 0.463 µM.
For `CCN1/C(=C/c2ccc3cc(C)ccc3[n+]2CC)Sc2ccccc21`, the inhibition in test [1] (at 50 µM) came to 99.4%. Also, in test [2], the 50% inhibitory concentration (IC50) was 3.44 µM.
As to `Cc1cc(O)c(/C=N/Nc2ccccc2)c(=O)o1`, the inhibition in test [1] (at 50 µM) came to 97.9%. Besides, the IC50 in test [2] was 19.5 µM.
In the case of `O=C(O)CCC(=O)N1CCN(c2nc(-c3ccccc3Cl)c3cc(Br)ccc3n2)CC1`, the inhibition in test [1] (at 50 µM) stood at 98.3%. The IC50 in test [2] was 32 µM.
Regarding `Cc1ccc(-n2c(C)cc(C(=O)COC(=O)c3ccc[nH]c3=O)c2C)cc1`, the inhibition in test [1] (at 50 µM) amounted to 67%. Further, in test [2], the IC50 is 27.7 µM.
In the case of `Nc1c(Nc2ccccc2)c2ccccc2oc1=O`, the inhibition in test [1] (at 50 µM) turned out to be 47.2%. For the same compound, the IC50 in test [2] is 47.1 µM.
With `Oc1ccc(-c2csc(-c3ccccc3)n2)cc1O`, the inhibition in test [1] (at 50 µM) was found to be 99.8%. For the same compound, in test [2], the IC50 was 21.9 µM.
As to `CC(=O)n1cc(C(C[N+](=O)[O-])SCCN)c2ccccc21` (centres undefined), in test [1] (at 50 µM), the inhibition was 100%. Further, the IC50 in test [2] is 13.9 µM.
With `CCCc1cc(C(=O)Cc2ccc(F)cc2)c(O)cc1O`, the inhibition in test [1] (at 50 µM) was 80.4%. In test [2], the IC50 was 26.9 µM.
As for `CCOC(=O)c1cnc(-n2nc(C)cc2C)nc1NC1CCCCC1`, the inhibition in test [1] (at 50 µM) came out at 57.5%. For the same compound, the IC50 in test [2] was 42.8 µM.
With `NNC(=O)c1ccc(COc2ccc3c(c2)CCC3)o1`, the inhibition in test [1] (at 50 µM) was 95.3%. Further, the IC50 in test [2] was 15.5 µM.
As to `CCOC(=O)/C(=N\Nc1ccccc1Cl)N1CCN(Cc2ccccc2)CC1`, the inhibition in test [1] (at 50 µM) was 73.9%. Moreover, in test [2], the IC50 is 26.8 µM.
Regarding `Nc1nsc2ccccc12`, the inhibition in test [1] (at 50 µM) turned out to be 63.5%. In addition, in test [2], the IC50 was 35.8 µM.
With `CC(C)(C)c1ccc(-c2nc(-c3ccncc3)no2)cc1`, in test [1] (at 50 µM), the inhibition came out at 48.7%. Besides, the IC50 in test [2] is 47 µM.
In the same order, the values of `O=C(CSC1=NS(=O)(=O)c2ccccc21)Nc1ccccc1` are 17.7% and > 100 µM (inactive).
`Cc1nc2ccc(NC(=O)c3cc([N+](=O)[O-])cc([N+](=O)[O-])c3Cl)cc2s1`: in test [1] (at 50 µM), the inhibition turned out to be 98.4%. The IC50 in test [2] was 15.2 µM.
Take `Cc1ccc(-c2cc(-c3ccccc3C)[nH]n2)c(O)c1`: in test [1] (at 50 µM), the inhibition was 89.4%. For the same compound, the IC50 in test [2] was 22.2 µM.
On the same counts, the results for `CCc1ccc2c(c1)C1(NN=C(c3ccc(C)cc3)S1)C(=O)N2` (centres undefined) are 98% and 21.3 µM.
In the case of `COc1cccc2sc(Nc3nc(-c4ccccn4)cs3)nc12`, the inhibition in test [1] (at 50 µM) came to 77.8%. Moreover, in test [2], the IC50 is 20 µM.
On the same counts, the results for `COc1ccccc1N1CCN(Cc2cc(Br)c(O)c3ncccc23)CC1` are 99.6% and 12.7 µM.
Consider `O=C(Oc1csc(=S)n1C(=O)c1ccccc1)c1ccccc1`, for which, in test [1] (at 12.5 µM), the inhibition was determined as 11.4%. The IC50 in test [2] is > 100 µM (inactive).
Turning to `CCN(CC)S(=O)(=O)c1ccc(NC(=O)CSc2cccc[n+]2[O-])cc1`, the inhibition in test [1] (at 50 µM) was 90.1%. Moreover, the IC50 in test [2] is 31.6 µM.
For the compound `CC(=O)NC1C(=O)N=C(SCC(=O)NC2CCCCC2)NC1=O` (centres undefined), in test [1] (at 50 µM), the inhibition came to 20.3%. Further, the IC50 in test [2] is > 100 µM (inactive).
For the compound `Cc1nc2c(F)c(F)c(C(F)(F)F)c(F)c2[nH]1`, in test [1] (at 0.391 µM), the inhibition was determined as 17.4%. Moreover, the IC50 in test [2] was > 100 µM (inactive).
Turning to `Cc1ccccc1NC(=S)c1nc2ccccc2[nH]1`, the inhibition in test [1] (at 50 µM) came to 95.3%. The 50% inhibitory concentration (IC50) in test [2] was 11.8 µM.
On the same counts, the results for `Cn1c(=O)c(C(=O)Nc2ncccn2)c(O)c2ccccc21` are 56.6% and 49.9 µM.
In the same order, the values of `COc1ccc(-c2nncnn2)cc1` are 99.8% and 7.1 µM.

The term inhibition denotes the drop in the measured response relative to a control, in per cent. The term IC50 denotes the concentration that inhibits the measured activity by half.
